From article PMC8578705 (Cell Reports, 2021)

How the values were obtained:
IP3R1 (HEK-IP3R1 cells) = biological target: T1, IP3R1 (HEK-IP3R1 cells) (Rattus norvegicus, UniProt P29994); test: Ca2+ release from permeabilized HEK-IP3R1 cells; assay type: cell-based; conditions: at the concentrations used (heparin 10 mg/mL, dequalinium 50 μM, 2-APB 125 μM), permeabilized HEK-IP3R1 cells
T1 construct: expressed in transfected cells
Experimental: Fluorescence, which is approximately linearly related to ER free [Ca^2+] […] Ca^2+-free CLM comprised: 20 mM NaCl, 140 mM KCl, 1 mM EGTA, 20 mM PIPES, 2 mM MgCl2, pH 7.0. […] MgATP (1.5 mM) was added to initiate Ca^2+ uptake, and when the ER had loaded to steady state with Ca^2+ (∼150 s), ligands were added. Responses to the ligands show ER Ca^2+ contents as either time courses or, in summary results, as the Ca^2+ content recorded 20 s after addition of the stimulus. The distribution of samples across 96-well plates was varied between experiments to avoid any systematic ‘position-related’ artifacts. HEK-G-CEPIA1er cells were permeabilized and assayed as described for Mag-fluo 4-loaded cells.
For equilibrium binding and concentration-effect relationships, results from each experiment were fitted to Hill equations (PRISM) from which pIC50 (-log of half-maximal inhibitory concentration) or pEC50 (-log of half-maximally effective concentration) values were determined.

SERCAs = test: Ca2+ uptake by the intracellular stores of permeabilized HEK-IP3R1 cells; assay type: cell-based, Homo sapiens; conditions: heparin 10 mg/mL
Experimental: Figure S6. Effects of heparin, 2-APB and dequalinium on IP3Rs and Ca2+ uptake by intracellular […]
Related to Figures 5 and 6.
(A) Structures of the antagonists used.
CLM at 20 °C. Mean ± SEM, n = 3.
(C-F) Permeabilized HEK-IP3R1 cells were loaded with Ca2+, and SERCA was then inhibited with CPA (10 μM) before addition of DMSO (1% v/v; C) or dequalinium (10-100 μM, D-F), and then the indicated […]
Mean of 2 replicates, typical of 5 experiments.
(G) Summary results (mean ± SEM, n = 5, each with duplicate determinations) show Ca2+ released by […]
ER Ca2+ content was measured 20
(H-J) Similar analyses of the effects of heparin (10 mg/mL, I) or 2-APB (125 μM, J). Means of 2 replicates, typical of 3-5 experiments.
(K) Effects of dequalinium (50 μM), heparin (10 mg/mL) or 2-APB (125 μM) on Ca2+ uptake by the intracellular stores of permeabilized HEK-IP3R1 cells. Mean ± SD of 4-6 replicates, typical of 4 […]
(L) and the rate of Ca2+ uptake (M). ER Ca2+ content was measured 180 s after addition of ATP (L).
Mean ± SEM, n = 4, each with 4-6 determinations. ****P < 0.0001, ***P < 0.001, *P < 0.05 one-way ANOVA with Bonferroni's test relative to control.

T1 sequence (P29994 1-2735 isoform P29994-2): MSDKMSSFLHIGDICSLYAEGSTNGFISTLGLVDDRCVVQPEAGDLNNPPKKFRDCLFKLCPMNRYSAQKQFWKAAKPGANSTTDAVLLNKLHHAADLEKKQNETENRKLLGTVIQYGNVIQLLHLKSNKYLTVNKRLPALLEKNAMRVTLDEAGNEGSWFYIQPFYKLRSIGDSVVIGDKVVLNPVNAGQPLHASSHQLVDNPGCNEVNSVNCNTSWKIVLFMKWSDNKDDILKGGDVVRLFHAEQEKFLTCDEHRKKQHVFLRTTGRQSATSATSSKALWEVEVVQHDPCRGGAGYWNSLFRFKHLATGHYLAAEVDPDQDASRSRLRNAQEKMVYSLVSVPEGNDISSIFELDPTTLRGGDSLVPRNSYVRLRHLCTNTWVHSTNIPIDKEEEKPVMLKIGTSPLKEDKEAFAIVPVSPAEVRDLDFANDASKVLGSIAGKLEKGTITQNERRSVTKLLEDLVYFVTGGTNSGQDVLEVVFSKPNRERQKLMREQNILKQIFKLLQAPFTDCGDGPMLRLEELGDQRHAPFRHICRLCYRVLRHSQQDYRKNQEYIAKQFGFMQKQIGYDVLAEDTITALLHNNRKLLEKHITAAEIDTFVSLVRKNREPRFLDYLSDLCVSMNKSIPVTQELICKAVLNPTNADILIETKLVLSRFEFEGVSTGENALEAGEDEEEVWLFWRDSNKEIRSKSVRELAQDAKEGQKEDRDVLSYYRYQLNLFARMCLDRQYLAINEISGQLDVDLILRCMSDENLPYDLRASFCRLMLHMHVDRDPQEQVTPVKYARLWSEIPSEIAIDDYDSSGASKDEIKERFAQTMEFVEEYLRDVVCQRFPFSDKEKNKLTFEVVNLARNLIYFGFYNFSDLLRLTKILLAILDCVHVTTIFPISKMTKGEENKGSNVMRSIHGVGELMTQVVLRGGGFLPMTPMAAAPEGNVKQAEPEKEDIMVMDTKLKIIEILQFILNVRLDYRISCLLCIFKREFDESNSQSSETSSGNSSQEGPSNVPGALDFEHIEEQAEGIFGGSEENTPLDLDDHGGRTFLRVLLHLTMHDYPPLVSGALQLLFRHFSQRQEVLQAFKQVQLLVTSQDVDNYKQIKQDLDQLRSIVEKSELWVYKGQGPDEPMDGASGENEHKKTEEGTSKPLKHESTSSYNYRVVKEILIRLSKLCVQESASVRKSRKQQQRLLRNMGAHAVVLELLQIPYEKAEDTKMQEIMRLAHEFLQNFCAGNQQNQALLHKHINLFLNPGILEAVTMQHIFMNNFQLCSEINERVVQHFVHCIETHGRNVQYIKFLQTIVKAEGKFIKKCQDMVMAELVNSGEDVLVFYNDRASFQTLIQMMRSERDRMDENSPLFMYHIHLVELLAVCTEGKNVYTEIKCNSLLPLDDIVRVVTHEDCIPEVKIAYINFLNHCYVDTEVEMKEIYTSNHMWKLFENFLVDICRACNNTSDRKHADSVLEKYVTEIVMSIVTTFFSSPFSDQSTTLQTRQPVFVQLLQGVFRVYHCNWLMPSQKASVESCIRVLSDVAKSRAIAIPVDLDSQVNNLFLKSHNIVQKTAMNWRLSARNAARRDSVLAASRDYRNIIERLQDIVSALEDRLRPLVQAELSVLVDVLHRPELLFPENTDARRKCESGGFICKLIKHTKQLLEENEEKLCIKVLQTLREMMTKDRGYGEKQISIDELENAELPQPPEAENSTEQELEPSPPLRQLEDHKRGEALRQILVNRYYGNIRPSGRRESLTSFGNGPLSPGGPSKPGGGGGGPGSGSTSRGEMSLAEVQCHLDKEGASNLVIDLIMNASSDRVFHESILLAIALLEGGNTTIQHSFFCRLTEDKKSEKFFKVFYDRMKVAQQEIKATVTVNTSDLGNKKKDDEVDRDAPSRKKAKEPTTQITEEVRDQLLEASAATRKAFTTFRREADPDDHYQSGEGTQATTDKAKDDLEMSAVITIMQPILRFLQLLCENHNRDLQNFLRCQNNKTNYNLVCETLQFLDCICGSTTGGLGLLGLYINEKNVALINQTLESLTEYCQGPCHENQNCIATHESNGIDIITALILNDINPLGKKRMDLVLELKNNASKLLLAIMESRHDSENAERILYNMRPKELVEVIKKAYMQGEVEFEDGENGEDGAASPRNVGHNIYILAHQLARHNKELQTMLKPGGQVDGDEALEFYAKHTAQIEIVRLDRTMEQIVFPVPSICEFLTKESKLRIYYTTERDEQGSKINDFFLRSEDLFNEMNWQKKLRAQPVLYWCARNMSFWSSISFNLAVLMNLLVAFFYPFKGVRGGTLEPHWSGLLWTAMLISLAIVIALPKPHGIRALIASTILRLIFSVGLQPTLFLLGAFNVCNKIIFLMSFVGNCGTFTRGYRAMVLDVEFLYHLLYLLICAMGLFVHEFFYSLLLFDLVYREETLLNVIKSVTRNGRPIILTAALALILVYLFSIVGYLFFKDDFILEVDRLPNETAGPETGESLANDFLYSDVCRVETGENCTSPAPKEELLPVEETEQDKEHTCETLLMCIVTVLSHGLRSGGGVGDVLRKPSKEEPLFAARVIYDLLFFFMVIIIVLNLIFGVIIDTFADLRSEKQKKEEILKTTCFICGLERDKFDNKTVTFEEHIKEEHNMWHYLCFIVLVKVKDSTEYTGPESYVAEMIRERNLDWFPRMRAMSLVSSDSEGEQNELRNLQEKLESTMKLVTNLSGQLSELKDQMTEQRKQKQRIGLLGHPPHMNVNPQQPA

block of IP3-evoked Ca2+ release (IP3R1 (HEK-IP3R1 cells)): completely
Substance: Heparin, sodium salt
effect on SERCAs (Ca2+ uptake) (SERCAs): partial inhibition
